Assay results reported in US20140357579A1, “SYNTHETIC PEPTIDE AMIDES AND DIMERS THEREOF” (priority 2006, published 2014).
Read-outs that look alike come from different tables or passages of the source. Bridge positions count the residues as written; N and C are the ends. Square brackets hold non-standard residues; d marks the D form. Side chains are listed from the residue outwards. Peptide text beside a SMILES is read from it. I, II: the chains in the order shown. dAgb = N=C(N)NCC[C@@H](N)C(=O)O; dAgp = N=C(N)NC[C@@H](N)C(=O)O; dNle = CCCC[C@@H](N)C(=O)O; dOrn = NCCC[C@@H](N)C(=O)O; Api = NC1(C(=O)O)CCNCC1

Assays:
[1] = biological target: T1, mouse kappa opioid receptor (mKOR) (Mus musculus, UniProt P33534); assay: Inhibition of forskolin-stimulated cAMP production in R1.G1 cells (TR-FRET cAMP immunoassay); assay type: cell-based; conditions: for EC50: inhibition of forskolin-stimulated cAMP
T1 construct: a mouse thymoma cell line that expresses only the kappa-opioid receptor and no other opioid receptor subtype; host or cells: R1.G1 mouse thymoma cells

[2] = biological target: T2, human kappa opioid receptor (hKOR) (Homo sapiens, UniProt P41145); assay: NFAT-luciferase reporter assay in HEK-293 cells transfected with human kappa opioid receptor and chimeric G-protein; assay type: cell-based; conditions: for hKOR Efficacy(%) / Emax: percent maximal activation compared to full induction by known kappa agonists; for Emax: HEK293, read-out: hKOR Efficacy(%); for EC50: transfected HEK-293 cells, luciferase reporter
T2 construct: expressed in transfected cells; host or cells: HEK-293 cells (ATCC), transient transfection with pcDNA3-hOPRK1

[3] = R1.G1 cells, read-out: mKOR EC50
[4] = R1.G1 cells, read-out: mKOR Efficacy(%)
[5] = read-out: mKOR Efficacy(%), R1.G1 cells

T2 sequence (P41145 whole entry): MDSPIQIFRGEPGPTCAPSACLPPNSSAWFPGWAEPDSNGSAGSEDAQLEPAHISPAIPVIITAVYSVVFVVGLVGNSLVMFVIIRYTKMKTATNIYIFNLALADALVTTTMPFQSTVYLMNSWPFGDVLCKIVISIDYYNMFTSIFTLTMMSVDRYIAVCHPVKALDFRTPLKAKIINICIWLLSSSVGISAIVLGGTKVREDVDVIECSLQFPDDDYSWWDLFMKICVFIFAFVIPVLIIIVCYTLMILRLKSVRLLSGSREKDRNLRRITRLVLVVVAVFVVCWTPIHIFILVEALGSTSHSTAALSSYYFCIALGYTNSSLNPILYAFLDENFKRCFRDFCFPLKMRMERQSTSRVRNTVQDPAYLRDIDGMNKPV
T1 sequence (P33534 whole entry): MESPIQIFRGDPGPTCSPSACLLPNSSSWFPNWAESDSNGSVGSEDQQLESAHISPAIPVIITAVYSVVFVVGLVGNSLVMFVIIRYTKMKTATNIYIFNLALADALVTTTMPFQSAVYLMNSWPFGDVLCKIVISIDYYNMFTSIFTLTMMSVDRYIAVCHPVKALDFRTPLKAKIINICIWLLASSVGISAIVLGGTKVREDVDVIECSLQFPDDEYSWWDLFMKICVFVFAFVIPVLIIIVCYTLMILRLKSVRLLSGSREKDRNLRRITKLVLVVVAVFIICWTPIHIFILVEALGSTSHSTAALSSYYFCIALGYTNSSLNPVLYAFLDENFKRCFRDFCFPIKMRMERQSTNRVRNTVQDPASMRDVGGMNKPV

Compound | mKOR Efficacy(%) ([1]; R1.G1 cells) | hKOR Efficacy(%) [2] | also measured
CC(C)C[C@@H](NC(=O)[C@@H](Cc1ccccc1)NC(=O)[C@H](N)Cc1ccccc1)C(=O)N[C@H](CCCNC(C)C)C(=O)N1CCCNCC1 [Compound 24, D-Phe-D-Phe-D-Leu-(6-iPr)D-Orn-[homopiperazine amide]] | 96% |  | 
CC(C)C[C@@H](NC(=O)[C@@H](Cc1ccccc1)NC(=O)[C@H](N)Cc1ccccc1)C(=O)N[C@H](CCCCN)C(=O)N1CCN(c2ccccn2)CC1 [Compound 28, D-Phe-D-Phe-D-Leu-D-Lys-[1-(pyridin-2-yl)piperazine amide]] | 89% | 100% | 
CNCCC[C@@H](NC(=O)[C@@H](CC(C)C)NC(=O)[C@@H](Cc1ccccc1)NC(=O)[C@H](N)Cc1ccccc1)C(=O)N1CCCNCC1 [Compound 23, D-Phe-D-Phe-D-Leu-(-Me)D-Orn-[homopiperazine amide]] | 95% |  | 
CC(C)C[C@@H](NC(=O)[C@@H](Cc1ccccc1)NC(=O)[C@H](N)Cc1ccccc1)C(=O)N[C@H](CCCCN)C(=O)N1CCN(c2nccs2)CC1 [Compound 29, D-Phe-D-Phe-D-Leu-D-Lys-[2-(piperazin-1-yl)thiazole amide]] | 85% | 92% | 
CC(C)C[C@@H](NC(=O)[C@@H](Cc1ccccc1)NC(=O)[C@H](N)Cc1ccccc1)C(=O)N[C@H](CCCCN)C(=O)N1CCN(S(C)(=O)=O)CC1 [Compound 31, D-Phe-D-Phe-D-Leu-D-Lys-[1-(methylsulfonyl)piperazine amide]] | 82% | 100% | 
CC(C)C[C@@H](NC(=O)[C@@H](Cc1ccccc1)NC(=O)[C@H](N)Cc1ccccc1)C(=O)N[C@H](CCCCN)C(=O)NCc1ccc(C(F)(F)F)nc1 [Compound 35, D-Phe-D-Phe-D-Leu-D-Lys-[6-trifluoromethyl-3-aminomethylpyridine amide]] | 85% | 95% | 
CC(C)C[C@@H](NC(=O)[C@@H](Cc1ccccc1)NC(=O)[C@H](N)Cc1ccccc1)C(=O)N[C@H](CCCNC(C)C)C(=O)N1CCC(N)(C(=O)O)CC1 [Compound 20, D-Phe-D-Phe-D-Leu-(δ-iPr)D-Orn-[omega(4-Aminopiperidine-4-carboxylic acid)]-OH] | 92% |  | Emax [2]: 97%; EC50 ([2]; read-out: hKOR EC50): 0.15 nM
CC(C)C[C@@H](NC(=O)[C@@H](Cc1ccccc1)NC(=O)[C@H](N)Cc1ccccc1)C(=O)N[C@H](CCCN)C(=O)N[C@@H]1CN[C@H](C(=O)O)C1 [Compound 5, D-Phe-D-Phe-D-Leu-D-Orn-[(2S,4S)-4-Amino-pyrrolidine-2-carboxylic acid]-OH] | 96% |  | 
CC(C)C[C@@H](NC(=O)[C@@H](Cc1ccccc1)NC(=O)[C@H](N)Cc1ccccc1)C(=O)N[C@H](CCCN)C(=O)NCCCC[C@@H](NC(=O)[C@H](N)CCCN)C(=O)O [Compound 45] |  |  | Emax [2]: 96%; EC50 ([2]; read-out: hKOR EC50): 0.28 nM; EC50 [1, 3]: 0.05 nM; Emax [1, 4]: 96%
CC(C)C[C@@H](NC(=O)[C@@H](Cc1ccccc1)NC(=O)[C@H](N)Cc1ccccc1)C(=O)N[C@H](CCCN)C(=O)NC1CCN(CC(N)=O)CC1 [Compound 15, D-Phe-D-Phe-D-Leu-D-Orn-[4-Amino-1-carboxymethyl-piperidine]-NH2] | 93% |  | 
CC(C)C[C@@H](NC(=O)[C@@H](Cc1ccccc1)NC(=O)[C@H](N)Cc1ccccc1)C(=O)N[C@H](CCCCN)C(=O)N1CCN(S(=O)(=O)N(C)C)CC1 [Compound 30, D-Phe-D-Phe-D-Leu-D-Lys-[N,N-dimethylpiperazine-1-sulfonamide amide]] | 86% | 101% | 
CNCCC[C@@H](NC(=O)[C@@H](CC(C)C)NC(=O)[C@@H](Cc1ccccc1)NC(=O)[C@H](N)Cc1ccccc1)C(=O)N1CCCN(C(=N)N)CC1 [Compound 21, D-Phe-D-Phe-D-Leu-(δ-Me)D-Orn-[4-Amidinohomopiperazine amide]] | 97% |  | 
CC(C)C[C@@H](NC(=O)[C@H](N)Cc1ccccc1)C(=O)N[C@H](CCCN)C(=O)N[C@@H](CCCCNC(=O)[C@@H](CCCN)NC(=O)[C@@H](CC(C)C)NC(=O)[C@@H](Cc1ccccc1)NC(=O)[C@H](N)Cc1ccccc1)C(=O)O [Compound 41] | 100% | 89% | EC50 ([2]; hKOR EC50 (nM)): 0.2 nM
CC(C)C[C@@H](NC(=O)[C@@H](Cc1ccccc1)NC(=O)[C@H](N)Cc1ccccc1)C(=O)N[C@H](CCCN)C(=O)NCCCC[C@@H](NC(=O)[C@@H](CCCN)NC(=O)[C@@H](CC(C)C)NC(=O)[C@@H](Cc1ccccc1)NC(=O)[C@H](N)Cc1ccccc1)C(=O)O [Compound 48] (H-[dF][dF][dL][dOrn][dK]([dOrn-dL-dF-dF])-OH) |  |  | EC50 ([1]; mKOR EC50 (nM), R1.G1 cells): 0.34 nM; Emax [1, 5]: 85%
CC(C)C[C@@H](NC(=O)[C@@H](Cc1ccccc1)NC(=O)[C@H](N)Cc1ccccc1)C(=O)N[C@H](CCCN)C(=O)N1CCC(CC(N)C(=O)O)CC1 (stereo partly drawn) [Compound 7, D-Phe-D-Phe-D-Leu-D-Orn-[ω(D/L-2-Amino-3-(4-N-piperidinyl)propionic acid)]-OH] | 102% | 104% | EC50 ([2]; read-out: hKOR EC50): 0.14 nM
CC(C)C[C@@H](NC(=O)[C@@H](Cc1ccccc1)NC(=O)[C@H](N)Cc1ccccc1)C(=O)N[C@@H]1CCCCNC(=O)CNC(=O)[C@H](NC(=O)[C@@H](CC(C)C)NC(=O)[C@@H](Cc2ccccc2)NC(=O)[C@H](N)Cc2ccccc2)CCCCNC(=O)CNC1=O [Compound 52, D-Phe-D-Phe-D-Leu-(D-Lys-GlyLactam)2-D-Leu-D-Phe-D-Phe] (I: H-[dF][dF][dL][dK]G / II: H-[dF][dF][dL][dK]G; amide I:4-II:C, I:C-II:4 (inferred); N-terminus assumed) |  |  | Emax [1, 5]: 76%
CC(C)C[C@@H](NC(=O)[C@@H](Cc1ccccc1)NC(=O)[C@H](N)Cc1ccccc1)C(=O)N[C@H](CCCN)C(=O)N1CCC(N2CCC[C@H]2C(=O)O)CC1 [Compound 10, D-Phe-D-Phe-D-Leu-D-Orn-[N-(4-piperidinyl)-L-proline]-OH] | 99% | 92% | EC50 ([2]; read-out: hKOR EC50): 0.12 nM
CC(C)C[C@@H](NC(=O)[C@@H](Cc1ccccc1)NC(=O)[C@H](N)Cc1ccccc1)C(=O)N[C@H](CCCN)C(=O)N1CCC(CCCC(=O)O)CC1 [Compound 12, D-Phe-D-Phe-D-Leu-D-Orn-[4-(4-piperidinyl)-butanoic acid]-OH] | 100% |  | Emax [2]: 99%; EC50 ([2]; read-out: hKOR EC50): 0.3 nM
CC(C)C[C@@H](NC(=O)[C@@H](Cc1ccccc1)NC(=O)[C@H](N)Cc1ccccc1)C(=O)N[C@H](CCCCN)C(=O)NCc1ccc2[nH]c(=O)[nH]c2c1 [Compound 37, D-Phe-D-Phe-D-Leu-D-Lys-[5-(aminomethyl)-1H-benzo[d]imidazol-2(3H)-one amide]] | 87% | 99% | 
CC(C)C[C@@H](NC(=O)[C@@H](Cc1ccccc1)NC(=O)[C@H](N)Cc1ccccc1)C(=O)N[C@H](CCCNC(C)C)C(=O)N1CCCN(C(=N)N)CC1 [Compound 22, D-Phe-D-Phe-D-Leu-(δ-iPr)D-Orn-[4-Amidinohomopiperazine amide]] | 97% |  | 
CC(C)C[C@@H](NC(=O)[C@@H](Cc1ccccc1)NC(=O)[C@H](N)Cc1ccccc1)C(=O)N[C@H](CCNC(=N)N)C(=O)NC1(C(=O)O)CCN(C(=O)[C@@H](CCNC(=N)N)NC(=O)[C@@H](CC(C)C)NC(=O)[C@@H](Cc2ccccc2)NC(=O)[C@H](N)Cc2ccccc2)CC1 [Compound 51, 1N,4N-bis-(D-Phe-D-Phe-D-Leu-D-Nar)-4amino-4carboxylic piperidine] (H-[dF][dF][dL][dAgb][Api]([dAgb-dL-dF-dF])-OH) |  |  | EC50 ([1]; mKOR EC50 (nM), R1.G1 cells): 95.8 nM; Emax [1, 5]: 60%
CC(C)C[C@@H](NC(=O)[C@@H](Cc1ccccc1)NC(=O)[C@H](N)Cc1ccccc1)C(=O)N[C@H](CCCNC(C)C)C(=O)NC1(C(=O)O)CCN(C(=O)[C@@H](CCCNC(C)C)NC(=O)[C@@H](CC(C)C)NC(=O)[C@@H](Cc2ccccc2)NC(=O)[C@H](N)Cc2ccccc2)CC1 [Compound 49] |  |  | Emax [1, 5]: 50%
CC(C)C[C@@H](N)C(=O)N[C@H](CCCN)C(=O)N[C@H](CCCCNC(=O)[C@@H](CCCN)NC(=O)[C@@H](CC(C)C)NC(=O)[C@@H](Cc1ccccc1)NC(=O)[C@H](N)Cc1ccccc1)C(=O)O [Compound 46] |  |  | EC50 [1, 3]: 0.12 nM; Emax [1, 4]: 95%
CC(C)C[C@@H](NC(=O)[C@H](N)Cc1ccccc1)C(=O)N[C@H](CCCN)C(=O)N[C@H](CCCCNC(=O)[C@@H](CCCN)NC(=O)[C@@H](CC(C)C)NC(=O)[C@@H](Cc1ccccc1)NC(=O)[C@H](N)Cc1ccccc1)C(=O)O [Compound 47] |  |  | EC50 ([1]; mKOR EC50 (nM), R1.G1 cells): 0.05 nM; Emax [1, 5]: 91%
CC(C)C[C@@H](N)C(=O)N[C@H](CCCN)C(=O)N[C@@H](CCCCNC(=O)[C@@H](CCCN)NC(=O)[C@@H](CC(C)C)NC(=O)[C@@H](Cc1ccccc1)NC(=O)[C@H](N)Cc1ccccc1)C(=O)O [Compound 39, D-Phe-D-Phe-D-Leu-D-Orn-[eLys(D-Orn-D-Leu-H)]-OH] |  |  | EC50 [1, 3]: 67.3 nM; Emax [1, 4]: 35%
CCCC[C@@H](NC(=O)[C@@H](Cc1ccccc1)NC(=O)[C@H](N)Cc1ccccc1)C(=O)N[C@H](CCCNC(=N)N)C(=O)N1CCC[C@@H]1C(=O)O [Compound 3, D-Phe-D-Phe-D-Nle-D-Arg-D-Pro-OH] (H-[dF][dF][dNle][dR][dP]-OH; N-terminus assumed) | 88% |  | 
CC(C)C[C@@H](NC(=O)[C@@H](Cc1ccccc1)NC(=O)[C@H](N)Cc1ccccc1)C(=O)N[C@H](CNC(=N)N)C(=O)NC1(C(=O)O)CCN(C(=O)[C@@H](CNC(=N)N)NC(=O)[C@@H](CC(C)C)NC(=O)[C@@H](Cc2ccccc2)NC(=O)[C@H](N)Cc2ccccc2)CC1 [Compound 50] (H-[dF][dF][dL][dAgp][Api]([dAgp-dL-dF-dF])-OH) |  |  | EC50 ([1]; mKOR EC50 (nM), R1.G1 cells): 56.7 nM; Emax [1, 5]: 77%
